In patent publication US5391540A, “Substituted pyridine compounds” (Rohm and Haas Company, priority 1993, dated 1995) one finds inhibition data, which are given here for eleven molecules.

Assay in all cases: Pre-emergent herbicidal activity (Table A)
What all share (format): in vivo

One experiment deals with Common Lambsquarters. The note with it: Chenopodium album, pre-emergence, Colq, 11.2 kg/ha, 10-14 days, read-out: herbicidal rating (% inhibition). The procedure, abridged:
(§1)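 Seeds or perennial propagules set on compacted topsoil, then covered with soil mixed with a known amount of test compound applied in acetone or water carrier. Ratings assigned on a scale based on percent inhibition of each species.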

The next experiment deals with Cocklebur. To be noted: Xanthium strumarium, pre-emergence, Cobu, 11.2 kg/ha, 10-14 days, read-out: herbicidal rating (% inhibition). The method in brief:
as §1

The subject of a further experiment is Rhizome Johnsongrass. To be noted: Sorghum halepense, pre-emergence, Rhjg, 11.2 kg/ha, 10-14 days, read-out: herbicidal rating (% inhibition). The method in brief:
as §1

The subject of another experiment is Canada thistle. The note with it: Cirsium arvense, pre-emergence, Cath, 11.2 kg/ha, 10-14 days, read-out: herbicidal rating (% inhibition). The procedure, abridged: as §1
A further experiment concerns Velvetleaf. The note with it: Abutilon theophrasti, pre-emergence, Vele, 11.2 kg/ha, 10-14 days, read-out: herbicidal rating (% inhibition). The procedure, abridged:
as §1

Another experiment has as its system Barnyardgrass. The note with it: Echinochloa crus-galli, pre-emergence, Bygr, 11.2 kg/ha, 10-14 days, read-out: herbicidal rating (% inhibition). The method in brief:
as §1

The subject of another experiment is Morningglory. To be noted: Ipomoea, pre-emergence, Mogl, 11.2 kg/ha, 10-14 days, read-out: herbicidal rating (% inhibition). The method in brief: as §1
The test system of the next experiment is Yellow Nutsedge. The note with it: Cyperus, pre-emergence, Yens, 11.2 kg/ha, 10-14 days, read-out: herbicidal rating (% inhibition). The method in brief:
as §1

The next experiment concerns Quackgrass. To be noted: pre-emergence, Rhqg, 11.2 kg/ha, 10-14 days, read-out: herbicidal rating (% inhibition). The procedure, abridged: as §1
The test system of the next experiment is Pennsylvania Smartweed. To be noted: pre-emergence, Pesw, 11.2 kg/ha, 10-14 days, read-out: herbicidal rating (% inhibition). The method in brief: as §1
The subject of a further experiment is Downy Brome. To be noted: Bromus tectorum, pre-emergence, Dobr, 11.2 kg/ha, 10-14 days, read-out: herbicidal rating (% inhibition). The method in brief:
as §1

Broadly, the inhibition is the percentage by which the read-out fell short of the control. In the case of `COC(=O)c1c(OC)nc(C(F)(F)F)c(N=CN(C)C)c1CC(C)C` [Compound 62, 3-pyridinecarboxylic acid, 5-[[(dimethylamino)methylene]amino]-2-methoxy-4-(2-methylpropyl)-6-(trifluoromethyl)-, methyl ester], the inhibition at 11200 g/ha lay within 75 to 100% with Common Lambsquarters; 25 to 49% in the experiment with Cocklebur; 50 to 74% in the experiment with Rhizome Johnsongrass; 75 to 100% in the experiment with Canada thistle; 75 to 100% in the experiment on Velvetleaf; 75 to 100% in the experiment with Barnyardgrass. Further, the inhibition at 11200 g/ha in the experiment with Morningglory lay within 75 to 100%; in the experiment on Yellow Nutsedge, 25 to 49%; in the experiment on Quackgrass, 75 to 100%; with Pennsylvania Smartweed it was 75 to 100%; in the experiment on Downy Brome it was 75 to 100%.

Take `COC(=O)c1c(OC)nc(C(F)(F)F)c(C(=O)OC)c1C(C)C` [Compound 63, 3,5-pyridinedicarboxylic acid, 2-methoxy-4-(1-methylethyl)-6-(trifluoromethyl)-, dimethyl ester]: the inhibition at 11200 g/ha with Common Lambsquarters lay in the range of 75 to 100%; with Cocklebur it was 0 to 24%; with Rhizome Johnsongrass, 75 to 100%; with Canada thistle, 50 to 74%; in the experiment with Velvetleaf, 75 to 100%; in the experiment with Barnyardgrass, 75 to 100%. Further, the inhibition at 11200 g/ha in the experiment with Morningglory, with Yellow Nutsedge, in the experiment on Quackgrass, with Pennsylvania Smartweed and with Downy Brome was 75 to 100% throughout.

In the case of `COC(=O)c1c(OC)nc(C(F)(F)F)c(C2=NCC(C)S2)c1CC(C)C` (stereo not shown) [Compound 64, 3-pyridinecarboxylic acid, 5-(4,5-dihydro-5-methy1-2-thiazolyl)-2-methoxy-4-(2-methylpropyl)-6-(trifluoromethyl)-, methyl ester], the inhibition at 11200 g/ha with Common Lambsquarters fell in the range of 75 to 100%; in the experiment on Cocklebur, 75 to 100%; in the experiment on Rhizome Johnsongrass it was 0 to 24%; in the experiment on Canada thistle, 75 to 100%; in the experiment on Velvetleaf it was 75 to 100%; with Barnyardgrass, 75 to 100%. Moreover, the inhibition at 11200 g/ha lay within 75 to 100% with Morningglory; 0 to 24% in the experiment with Yellow Nutsedge; 50 to 74% in the experiment on Quackgrass; 75 to 100% in the experiment on Pennsylvania Smartweed; 75 to 100% in the experiment on Downy Brome.

For `COc1nc(C(F)(F)F)c(C(=O)SC)c(C2CCC2)c1C(=O)SC` [Compound 65, 3,5 pyridinedicarbothioic acid, 4-cyclobuty1-2-methoxy-6-(trifluoromethyl)-, S,S-dimethyl ester], the inhibition at 11200 g/ha in the experiment on Common Lambsquarters was 75 to 100%; in the experiment with Cocklebur, 25 to 49%; in the experiment on Rhizome Johnsongrass it was 0 to 24%; in the experiment on Canada thistle, 75 to 100%; with Velvetleaf it was 75 to 100%; in the experiment on Barnyardgrass it was 75 to 100%. The inhibition at 11200 g/ha in the experiment on Morningglory lay in the range of 75 to 100%; with Yellow Nutsedge it was 25 to 49%; in the experiment on Quackgrass, 50 to 74%; in the experiment on Pennsylvania Smartweed it was 75 to 100%; in the experiment with Downy Brome it was 75 to 100%.

For `COC(=O)c1c(OC)nc(C(F)(F)F)c(C(=O)N2CCCC2)c1CC(C)C` [Compound 66, 3-pyridinecarboxylic acid, 2-methoxy-4-(2-methylpropyl)-5-(1-pyrrolidinylcarbonyl)-6-(trifluoromethyl)-, methyl ester], the inhibition at 11200 g/ha was in the range of 75 to 100% in the experiment on Common Lambsquarters; 0 to 24% with Cocklebur; 0 to 24% in the experiment on Rhizome Johnsongrass; 75 to 100% in the experiment with Canada thistle; 25 to 49% in the experiment with Velvetleaf; 75 to 100% with Barnyardgrass. The inhibition at 11200 g/ha is 50 to 74% in the experiment on Morningglory; 0 to 24% in the experiment with Yellow Nutsedge; 75 to 100% in the experiment on Quackgrass; 25 to 49% in the experiment on Pennsylvania Smartweed; 75 to 100% in the experiment with Downy Brome.

In the case of `COC(=O)c1c(OC)nc(C(F)(F)F)c(C(=O)N2CCCCC2)c1CC(C)C` [Compound 67, 3-pyridinecarboxylic acid, 2-methoxy-4-(2-methylpropyl)-5-(1-piperidinylcarbonyl)-6-(trifluoromethyl)-, methyl ester], the inhibition at 11200 g/ha with Common Lambsquarters fell in the range of 75 to 100%; in the experiment with Cocklebur, 0 to 24%; in the experiment on Rhizome Johnsongrass it was 0 to 24%; with Canada thistle, 75 to 100%; with Velvetleaf, 50 to 74%; in the experiment on Barnyardgrass, 75 to 100%. Moreover, the inhibition at 11200 g/ha in the experiment on Morningglory was in the range of 75 to 100%; in the experiment with Yellow Nutsedge, 0 to 24%; with Quackgrass, 75 to 100%; in the experiment with Pennsylvania Smartweed it was 75 to 100%; with Downy Brome, 75 to 100%.

As for `COC(=O)c1c(OC)nc(C(F)(F)F)c(C(=O)N2CCC2)c1CC(C)C` [Compound 68, 3-pyridinecarboxylic acid, 5-(1-azetidinylcarbonyl)-2-methoxy-4-(2-methylpropyl)-6-(trifluoromethyl)-, methyl ester], the inhibition at 11200 g/ha with Common Lambsquarters lay within 75 to 100%; in the experiment with Cocklebur it was 0 to 24%; in the experiment with Rhizome Johnsongrass it was 25 to 49%; in the experiment on Canada thistle, 25 to 49%; in the experiment on Velvetleaf, 0 to 24%; in the experiment on Barnyardgrass it was 75 to 100%. Also, the inhibition at 11200 g/ha with Morningglory was in the range of 50 to 74%; with Yellow Nutsedge, 0 to 24%; in the experiment on Quackgrass, 75 to 100%; in the experiment with Pennsylvania Smartweed, 25 to 49%; in the experiment with Downy Brome, 75 to 100%.

Regarding `COC(=O)c1c(OC)nc(C(F)(F)F)c(C(=O)N2CCOCC2)c1CC(C)C` [Compound 69, 3-pyridinecarboxylic acid, 2-methoxy-4-(2-methylpropyl)-5-(4-morpholinyl)carbony1-6-(trifluoromethyl)-, methyl ester], the inhibition at 11200 g/ha in the experiment on Common Lambsquarters is 75 to 100%; with Cocklebur, 0 to 24%; in the experiment on Rhizome Johnsongrass, 50 to 74%; in the experiment with Canada thistle, 50 to 74%; with Velvetleaf, 0 to 24%; in the experiment with Barnyardgrass, 75 to 100%. In addition, the inhibition at 11200 g/ha lay in the range of 25 to 49% in the experiment with Morningglory; 0 to 24% in the experiment with Yellow Nutsedge; 75 to 100% in the experiment on Quackgrass; 0 to 24% in the experiment with Pennsylvania Smartweed; 25 to 49% in the experiment on Downy Brome.

Take `COC(=O)c1c(OC)nc(C(F)(F)F)c(C(=O)N2CCSCC2)c1CC(C)C` [Compound 70, 3-pyridinecarboxylic acid, 2-methoxy-4-(2-methylpropyl)-5-(4-thiomorpholinylcarbonyl)-6-(trifluoromethyl)-, methyl ester]: the inhibition at 11200 g/ha in the experiment with Common Lambsquarters lay in the range of 75 to 100%; in the experiment with Cocklebur, 0 to 24%; with Rhizome Johnsongrass it was 0 to 24%; in the experiment on Canada thistle, 50 to 74%; with Velvetleaf, 0 to 24%; in the experiment with Barnyardgrass, 75 to 100%. For the same molecule, the inhibition at 11200 g/ha in the experiment on Morningglory lay in the range of 50 to 74%; in the experiment on Yellow Nutsedge, 25 to 49%; in the experiment on Quackgrass, 50 to 74%; with Pennsylvania Smartweed, 0 to 24%; in the experiment with Downy Brome, 50 to 74%.

As to `COC(=O)c1c(OC)nc(C(F)(F)F)c(C(=O)N2CCSC2)c1CC(C)C` [Compound 71, 3-pyridinecarboxylic acid, 2-methoxy-4-(2-methylpropyl)-5-(3-thiazolidinylcarbonyl)-6-(trifluoromethyl)-, methyl ester], the inhibition at 11200 g/ha with Common Lambsquarters is 75 to 100%; in the experiment with Cocklebur, 0 to 24%; in the experiment with Rhizome Johnsongrass, 0 to 24%; with Canada thistle, 25 to 49%; in the experiment on Velvetleaf it was 25 to 49%; in the experiment with Barnyardgrass, 75 to 100%. Further, the inhibition at 11200 g/ha with Morningglory fell in the range of 50 to 74%; with Yellow Nutsedge, 0 to 24%; in the experiment with Quackgrass, 50 to 74%; in the experiment with Pennsylvania Smartweed it was 50 to 74%; in the experiment on Downy Brome, 75 to 100%.

Turning to `COC(=O)c1c(OC)nc(C(F)(F)F)c(C(=O)N2CC2C)c1CC(C)C` (stereo not shown) [Compound 72], the inhibition at 11200 g/ha in the experiment on Common Lambsquarters was 75 to 100%; in the experiment on Cocklebur, 0 to 24%; in the experiment on Rhizome Johnsongrass, 0 to 24%; in the experiment on Canada thistle it was 0 to 24%; in the experiment with Velvetleaf, 25 to 49%; in the experiment on Barnyardgrass, 75 to 100%. The inhibition at 11200 g/ha in the experiment with Morningglory lay within 25 to 49%; with Yellow Nutsedge, 0 to 24%; with Quackgrass, 0 to 24%; in the experiment with Pennsylvania Smartweed, 25 to 49%; in the experiment on Downy Brome it was 75 to 100%.
